Reference: patent US9428459B2, “Difluoromethyl-nicotinic- tetrahydronaphtyl carboxamides” (BAYER CROPSCIENCE AG, priority 2012, dated 2016)

Tests used:
[1] = log P by HPLC on reversed phase columns (EEC directive 79/831 Annex V.A8); type: physicochemical; settings: method [a]: LC-MS at pH 2.7, 0.1% formic acid in water / acetonitrile, gradient 10% to 95% acetonitrile; for chromatographic logP: reversed phase HPLC columns
Description: Measurement of log P values was performed according EEC directive 79/831 Annex V.A8 by HPLC (High Performance Liquid Chromatography) on reversed phase columns with the following methods: ^[a]Measurement of LC-MS was done at pH 2.7 with 0.1% formic acid in water and with acetonitrile (contains 0.1% formic acid) as eluent with a linear gradient from 10% acetonitrile to 95% acetonitrile. Calibration was done with not branched alkan2-ones (with 3 to 16 carbon atoms) with known log P-values (measurement of log P values using retention times with linear interpolation between successive alkanones). lambda-maX-values were determined using UV-spectra from 200 nm to 400 nm and the peak values of the chromatographic signals.

[2] = system: Alternaria brassicae; test: In vivo preventive test on Alternaria brassicae (leaf spot on radish); settings: dose 500 ppm, radish plants, preventive spray, grading 6 days after contamination
Description: Radish plants (“Pernod Clair” variety), sown in starter cups on a 50/50 peat soil-pozzolana substrate and grown at 17° C., are treated at the cotyledon stage by spraying with the active ingredient prepared as described above. Plants, used as controls, are treated with the mixture of acetone/tween/DMSO/water not containing the active material. After 24 hours, the plants are contaminated by spraying the cotyledons with an aqueous suspension of Alternaria brassicae spores (50 000 spores per ml). The spores are collected from a 15-day-old culture. The contaminated radish plants are incubated at 20° C. and at 100% relative humidity. Grading (% of efficacy) is carried out 6 days after the contamination, in comparison with the control plants.

[3] = system: Pyrenophora teres; test: In vivo preventive test on Pyrenophora teres (net blotch on barley); settings: dose 500 ppm, barley plants, preventive spray, grading 14 days after contamination
Description: Barley plants (“Plaisant” variety), sown in starter cups on a 50/50 peat soil-pozzolana substrate and grown at 22° C., are treated at the 1-leaf stage (10 cm height) by spraying with the active ingredient prepared as described above. Plants, used as controls, are treated with the mixture of acetone/tween/DMSO/water not containing the active material. After 24 hours, the plants are contaminated by spraying the leaves with an aqueous suspension of Pyrenophora teres spores (12 000 spores per ml). The spores are collected from a 12-day-old culture. The contaminated barley plants are incubated for 48 hours at 20° C. and at 100% relative humidity, and then for 12 days at 20° C. at 70-80% relative humidity. Grading (% of efficacy) is carried out 14 days after the contamination, in comparison with the control plants.

[4] = system: Botrytis cinerea; test: In vivo preventive test on Botrytis cinerea (grey mould); settings: gherkin plants, preventive spray, grading 4 to 5 days after contamination
Description: Gherkin plants (“Vert petit de Paris” variety), sown in starter cups on a 50/50 peat soil-pozzolana substrate and grown at 24° C., are treated at the Z11 cotyledon stage by spraying with the active ingredient prepared as described above. Plants, used as controls, are treated with the mixture of acetone/tween/DMSO/water not containing the active material. After 24 hours, the plants are contaminated by spraying the cotyledons with an aqueous suspension of cryopreserved Botrytis cinerea spores (50 000 spores per ml). The spores are suspended in a nutrient solution composed of 10 g/L of PDB, 50 g/L of D-Fructose, 2 g/L of NH4NO3 and 1 g/L of KH2PO4. The contaminated gherkin plants are incubated at 17° C. and at 90% relative humidity. Grading (% of efficacy) is carried out 4 to 5 days after the contamination, in comparison with the control plants.

[5] = system: Puccinia recondita; test: In vivo preventive test on Puccinia recondita (brown rust on wheat); settings: wheat plants, preventive spray, grading 12 days after contamination
Description: Wheat plants (“Scipion” variety), sown in starter cups on a 50/50 peat soil-pozzolana substrate and grown at 22° C., are treated at the 1-leaf stage (10 cm height) by spraying with the active ingredient prepared as described above. Plants, used as controls, are treated with the mixture of acetone/tween/DMSO/water not containing the active material. After 24 hours, the plants are contaminated by spraying the leaves with an aqueous suspension of Puccinia recondita spores (100 000 spores per ml). The spores are collected from an infected plant and are suspended in water containing 2.5 ml/l of Tween 80 at 10%. The contaminated wheat plants are incubated for 24 hours at 20° C. and at 100% relative humidity, and then for 10 days at 20° C. and at 70-80% relative humidity. Grading (% of efficacy) is carried out 12 days after the contamination, in comparison with the control plants.

[6] = system: Uromyces appendiculatus; test: In vivo preventive test on Uromyces appendiculatus (bean rust); settings: dose 500 ppm, bean plants, preventive spray, grading 11 days after contamination
Description: The active ingredients tested are prepared by homogenization in a mixture of acetone/tween/DMSO, and then diluted with water to obtain the desired active material concentration.
Bean plants (“Saxa” variety), sown in starter cups on a 50/50 peat soil-pozzolana substrate and grown at 24° C., are treated at the 2-leaf stage (9 cm height) by spraying with the active ingredient prepared as described above. Plants, used as controls, are treated with the mixture of acetone/tween/DMSO/water not containing the active material.
After 24 hours, the plants are contaminated by spraying the leaves with an aqueous suspension of Uromyces appendiculatus spores (150 000 spores per ml). The spores are collected from infected plants and are suspended in water containing 2.5 ml/l of Tween 80 at 10%. The contaminated bean plants are incubated for 24 hours at 20° C. and at 100% relative humidity, and then for 10 days at 20° C. and at 70-80% relative humidity.
Grading (% of efficacy) is carried out 11 days after the contamination, in comparison with the control plants.

[7] = system: Sphaerotheca fuliginea; test: In vivo preventive test on Sphaerotheca fuliginea (powdery mildew on cucurbits); settings: dose 100 ppm, gherkin plants, preventive spray, grading 12 days after contamination
Description: Gherkin plants (“Vert petit de Paris” variety), sown in starter cups on a 50/50 peat soil-pozzolana substrate and grown at 24° C., are treated at the Z11 cotyledon stage by spraying with the active ingredient prepared as described above. Plants, used as controls, are treated with the mixture of acetone/tween/DMSO/water not containing the active material. After 24 hours, the plants are contaminated by spraying the cotyledons with an aqueous suspension of Sphaerotheca fuliginea spores (100 000 spores per ml). The spores are collected from infected plants. The contaminated gherkin plants are incubated at about 20° C. and at 70-80% relative humidity. Grading (% of efficacy) is carried out 12 days after the contamination, in comparison with the control plants.

[8] = system: Septoria tritici; test: In vivo preventive test on Septoria tritici (leaf spot on wheat); settings: dose 100 ppm, wheat plants, preventive spray, grading 24 days after contamination
Description: Wheat plants (“Scipion” variety), sown in starter cups on a 50/50 peat soil-pozzolana substrate and grown at 22° C., are treated at the 1-leaf stage (10 cm height) by spraying with the active ingredient prepared as described above. Plants, used as controls, are treated with the mixture of acetone/tween/DMSO/water not containing the active material. After 24 hours, the plants are contaminated by spraying the leaves with an aqueous suspension of cryopreserved Septoria tritici spores (500 000 spores per ml). The contaminated wheat plants are incubated for 72 hours at 18° C. and at 100% relative humidity, and then for 21 days at 90% relative humidity. Grading (% of efficacy) is carried out 24 days after the contamination, in comparison with the control plants.

| Compound | logP [1] | other results |
| --- | --- | --- |
| CC1CCc2c(NC(=O)c3cccnc3C(F)F)cccc2C1C (mixture of isomers) [Example 6] | 3.24^[a] | – |
| CC1(C)CCc2cccc(NC(=O)c3cccnc3C(F)F)c2C1 [Example 1, 2-(difluoromethyl)-N-(7,7-dimethyl-5,6,7,8-tetrahydronaphthalen-1-yl)nicotinamide] | – | chromatographic logP [1]: 3.23 |
| CC1c2cccc(NC(=O)c3cccnc3C(F)F)c2CCC1(C)C (stereo not shown) [Example 2] | 3.55^[a] | – |
| CC1CCC(C)(C)c2cccc(NC(=O)c3cccnc3C(F)F)c21 (stereo not shown) [Example 3] | 3.37^[a] | – |
| C=C1c2cccc(NC(=O)c3cccnc3C(F)F)c2CCC1(C)C [Example 4] | 3.33^[a] | biological efficacy [2]: ≥ 70% |
| CC1(C)CCc2c(NC(=O)c3cccnc3C(F)F)cccc2C1=O [Example 5] | 2.28^[a] | biological efficacy [3]: ≥ 70% |
| Cc1cnc(C(F)F)c(C(=O)Nc2cccc3c2CCC(C)(C)C3)c1 [Example 7, 2-(difluoromethyl)-N-(6,6-dimethyl-5,6,7,8-tetrahydronaphthalen-1-yl)-5-methylnicotinamide] | – | chromatographic logP [1]: 3.52 |
| CON=C1CCCc2c(NC(=O)c3cc(C)cnc3C(F)F)cccc21 [Example 8] | 2.75^[a] | – |
| CON=C1CCCc2c(NC(=O)c3cccnc3C(F)F)cccc21 [Example 9] | 2.49^[a] | biological efficacy [2]: ≥ 90%; biological efficacy ([4]; dose 500 ppm): ≥ 70%; biological efficacy ([5]; dose 500 ppm): ≥ 70%; biological efficacy [6]: ≥ 70% |
| Cc1cnc(C(F)F)c(C(=O)Nc2ccc(F)c3c2CCCC3(C)C)c1 [Example 10] | 3.57^[a] | – |
| CC1(C)CCCc2c(NC(=O)c3ccc(Cl)nc3C(F)F)ccc(F)c21 [Example 11] | 3.94^[a] | – |
| CC1(C)CCCc2c(NC(=O)c3cccnc3C(F)F)ccc(F)c21 [Example 12] | 3.29^[a] | – |
| CCON=C1CCCc2c(NC(=O)c3cc(C)cnc3C(F)F)cccc21 [Example 13] | 3.19^[a] | – |
| CC1(C)CCc2c(cccc2NC(=O)c2cccnc2C(F)F)C1 [Example 14] | 3.23^[a] | – |
| CC1(C)CCCc2c(NC(=S)c3cccnc3C(F)F)ccc(F)c21 [Example 15] | 3.79^[a] | – |
| CCON=C1CCCc2c(NC(=O)c3cccnc3C(F)F)cccc21 [Example 16] | 2.90^[a] | – |
| Cc1cnc(C(F)F)c(C(=S)Nc2cccc3c2CCC(C)(C)C3)c1 [Example 17, 2-(difluoromethyl)-N-(6,6-dimethyl-5,6,7,8-tetrahydronaphthalen-1-yl)-5-methylpyridine-3-carbothioamide] | – | chromatographic logP [1]: 3.94 |
| CC(C)C1CCCc2c(NC(=O)c3cccnc3C(F)F)cccc21 (stereo not shown) [Example 18] | 3.60^[a] | biological efficacy ([4]; dose 100 ppm): ≥ 90%; biological efficacy ([5]; dose 100 ppm): ≥ 90%; biological efficacy [7]: ≥ 80% |
| CC(C)C1CCCc2c(NC(=O)c3ccc(Cl)nc3C(F)F)cccc21 (stereo not shown) [Example 19] | 4.31^[a] | biological efficacy ([5]; dose 100 ppm): ≥ 70%; biological efficacy [8]: ≥ 70% |
| Cc1cnc(C(F)F)c(C(=O)Nc2cccc3c2CCCC3(C)C)c1 [Example 20] | 3.46^[a] | – |
